These results are taken from patent publication US20230399342A1 (Incyte Corporation, priority 2022, published 2023).

One test concerns the target DGKα (Homo sapiens (Human), UniProt P23743). The experiment in a line: In vitro DGKα inhibition assay (ADP-Glo). The following applies: His-tagged human recombinant enzyme, 0.1 nM DGKα, 50 μM ATP, 20 μM DLG, 90 minute incubation. Type of test: biochemical. The procedure, abridged:
(§1)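 His-tagged human DGKα (0.1 nM, 50 μM ATP) or DGKζ (0.4 nM, 30 μM ATP), each with 20 μM DLG, in Tris pH 7.5 buffer with CHAPS, Mg2+, Ca2+.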

The target of the next test is DGKζ (Homo sapiens (Human), UniProt Q13574). The experiment in a line: In vitro DGKζ inhibition assay (ADP-Glo). The following applies: His-tagged human recombinant enzyme, 0.4 nM DGK, 30 μM ATP, 20 μM DLG, 90 minute incubation. In kind it is biochemical. The procedure, abridged:
as §1

Structures are written as SMILES.

Chain of DGKα (P23743 whole entry): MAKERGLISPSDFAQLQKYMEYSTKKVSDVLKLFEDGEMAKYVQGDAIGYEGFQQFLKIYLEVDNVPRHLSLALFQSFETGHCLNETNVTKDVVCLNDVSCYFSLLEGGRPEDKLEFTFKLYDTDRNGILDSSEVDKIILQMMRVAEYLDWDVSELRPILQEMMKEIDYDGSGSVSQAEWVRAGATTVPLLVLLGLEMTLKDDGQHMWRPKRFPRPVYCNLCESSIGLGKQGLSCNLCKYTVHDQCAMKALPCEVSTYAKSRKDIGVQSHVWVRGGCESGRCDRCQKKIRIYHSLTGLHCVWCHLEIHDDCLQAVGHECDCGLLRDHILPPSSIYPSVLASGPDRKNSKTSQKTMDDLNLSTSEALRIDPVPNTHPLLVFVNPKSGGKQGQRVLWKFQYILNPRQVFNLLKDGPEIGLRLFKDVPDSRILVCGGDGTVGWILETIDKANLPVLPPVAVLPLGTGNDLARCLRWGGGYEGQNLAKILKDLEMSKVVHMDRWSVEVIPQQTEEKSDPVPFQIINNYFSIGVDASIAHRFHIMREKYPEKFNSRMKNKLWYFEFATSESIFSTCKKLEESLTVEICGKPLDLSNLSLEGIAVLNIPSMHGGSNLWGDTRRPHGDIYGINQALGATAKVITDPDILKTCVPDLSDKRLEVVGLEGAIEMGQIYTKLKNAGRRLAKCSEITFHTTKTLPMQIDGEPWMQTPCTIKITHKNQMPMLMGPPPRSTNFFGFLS
Chain of DGKζ (Q13574 whole entry): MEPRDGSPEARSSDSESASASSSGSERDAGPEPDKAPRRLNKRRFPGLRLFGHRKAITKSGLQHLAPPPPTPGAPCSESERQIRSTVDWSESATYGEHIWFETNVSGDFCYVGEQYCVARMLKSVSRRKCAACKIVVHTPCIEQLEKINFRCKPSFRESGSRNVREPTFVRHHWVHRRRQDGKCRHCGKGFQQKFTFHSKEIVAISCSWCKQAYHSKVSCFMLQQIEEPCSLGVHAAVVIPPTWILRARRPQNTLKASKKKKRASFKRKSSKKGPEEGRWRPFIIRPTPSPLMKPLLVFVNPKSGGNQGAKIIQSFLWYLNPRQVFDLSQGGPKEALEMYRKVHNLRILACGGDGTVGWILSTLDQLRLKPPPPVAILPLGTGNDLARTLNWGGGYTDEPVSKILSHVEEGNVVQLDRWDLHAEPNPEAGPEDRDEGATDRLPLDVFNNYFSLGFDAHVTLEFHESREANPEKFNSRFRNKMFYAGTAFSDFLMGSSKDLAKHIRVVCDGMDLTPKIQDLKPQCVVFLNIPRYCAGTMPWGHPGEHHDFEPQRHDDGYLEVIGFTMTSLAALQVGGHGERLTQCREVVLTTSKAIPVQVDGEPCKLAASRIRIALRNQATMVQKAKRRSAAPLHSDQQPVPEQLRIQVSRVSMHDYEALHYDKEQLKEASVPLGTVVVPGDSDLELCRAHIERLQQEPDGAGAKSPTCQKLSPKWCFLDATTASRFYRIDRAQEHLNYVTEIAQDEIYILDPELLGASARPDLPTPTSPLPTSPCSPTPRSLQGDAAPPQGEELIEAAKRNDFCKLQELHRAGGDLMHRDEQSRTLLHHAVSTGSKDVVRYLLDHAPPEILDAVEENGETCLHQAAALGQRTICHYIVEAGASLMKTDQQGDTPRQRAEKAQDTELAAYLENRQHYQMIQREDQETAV

Turning to `Cc1nc2c(N3C[C@@H](C)N([C@H](c4cccc(C(F)(F)F)c4)C(C)C)C[C@@H]3C)nc3nncn3c2n1C[C@@H]1CCCO1` [Example 69, 4-((2S,5R)-2,5-Dimethyl-4-((S)-2-methyl-1-(3-(trifluoromethyl)phenyl)propyl)piperazin-1-yl)-2-methyl-1-(((S)-tetrahydrofuran-2-yl)methyl)-1H-[1,2,4]triazolo[3,4-b]purine], the IC50 at DGKα and on DGKζ was at most 20 nM throughout.
With `Cc1nc2c(N3C[C@@H](C)N([C@@H](c4cccc(C(F)(F)F)c4)C(C)C)C[C@@H]3C)nc3nncn3c2n1C[C@@H]1CCCO1` [Example 70, 4-((2S,5R)-2,5-dimethyl-4-((R)-2-methyl-1-(3-(trifluoromethyl)phenyl)propyl)piperazin-1-yl)-2-methyl-1-(((S)-tetrahydrofuran-2-yl)methyl)-1H-[1,2,4]triazolo[3,4-b]purine], the IC50 at DGKα and at DGKζ was at most 20 nM in each case.
With `Cc1nc2c(N3C[C@@H](C)N([C@H](c4ccc(C(F)(F)F)cc4F)C(C)C)C[C@@H]3C)nc3nncn3c2n1C[C@@H]1CCCO1` [Example 71, 4-((2S,5R)-4-((S)-1-(2-Fluoro-4-(trifluoromethyl)phenyl)-2-methylpropyl)-2,5-dimethylpiperazin-1-yl)-2-methyl-1-(((S)-tetrahydrofuran-2-yl)methyl)-1H-[1,2,4]triazolo[3,4-b]purine], the IC50 at DGKα and at DGKζ was at most 20 nM each time.
Consider `Cc1nc2c(N3C[C@@H](C)N([C@@H](c4ccc(C(F)(F)F)cc4F)C(C)C)C[C@@H]3C)nc3nncn3c2n1C[C@@H]1CCCO1` [Example 72, 4-((2S,5R)-4-((R)-1-(2-fluoro-4-(trifluoromethyl)phenyl)-2-methylpropyl)-2,5-dimethylpiperazin-1-yl)-2-methyl-1-(((S)-tetrahydrofuran-2-yl)methyl)-1H-[1,2,4]triazolo[3,4-b]purine], for which the half-maximal inhibitory concentration (IC50) on DGKα and on DGKζ was at most 20 nM throughout.
As to `Cc1nc2c(N3C[C@@H](C)N([C@H](c4ccc(C(F)F)cc4)C(C)C)C[C@@H]3C)nc3nncn3c2n1C[C@@H]1CCCO1` [Example 73, 4-((2S,5R)-4-((S)-1-(4-(Difluoromethyl)phenyl)-2-methylpropyl)-2,5-dimethylpiperazin-1-yl)-2-methyl-1-(((S)-tetrahydrofuran-2-yl)methyl)-1H-[1,2,4]triazolo[3,4-b]purine], the IC50 on DGKα and at DGKζ was at most 20 nM throughout.
Turning to `Cc1nc2c(N3C[C@@H](C)N([C@@H](c4ccc(C(F)F)cc4)C(C)C)C[C@@H]3C)nc3nncn3c2n1C[C@@H]1CCCO1` [Example 74, 4-((2S,5R)-4-((R)-1-(4-(difluoromethyl)phenyl)-2-methylpropyl)-2,5-dimethylpiperazin-1-yl)-2-methyl-1-(((S)-tetrahydrofuran-2-yl)methyl)-1H-[1,2,4]triazolo[3,4-b]purine], the IC50 at DGKα and on DGKζ was at most 20 nM each time.
Take `Cc1nc2c(N3C[C@@H](C)N([C@H](c4ccc(OC(F)F)cc4F)C(C)C)C[C@@H]3C)nc3nncn3c2n1C[C@@H]1CCCO1` [Example 75, 4-((2S,5R)-4-((S)-1-(4-(Difluoromethoxy)-2-fluorophenyl)-2-methylpropyl)-2,5-dimethylpiperazin-1-yl)-2-methyl-1-(((S)-tetrahydrofuran-2-yl)methyl)-1H-[1,2,4]triazolo[3,4-b]purine]: the IC50 at DGKα and at DGKζ was at most 20 nM in each case.
In the case of `Cc1nc2c(N3C[C@@H](C)N([C@@H](c4ccc(OC(F)F)cc4F)C(C)C)C[C@@H]3C)nc3nncn3c2n1C[C@@H]1CCCO1` [Example 76, 4-((2S,5R)-4-((R)-1-(4-(difluoromethoxy)-2-fluorophenyl)-2-methylpropyl)-2,5-dimethylpiperazin-1-yl)-2-methyl-1-(((S)-tetrahydrofuran-2-yl)methyl)-1H-[1,2,4]triazolo[3,4-b]purine], the IC50 at DGKα and on DGKζ was at most 20 nM in each case.
Turning to `COc1ccc([C@H](C(C)C)N2C[C@H](C)N(c3nc4nncn4c4c3nc(C)n4C[C@@H]3CCCO3)C[C@H]2C)cc1` [Example 77, 4-((2S,5R)-4-((S)-1-(4-Methoxyphenyl)-2-methylpropyl)-2,5-dimethylpiperazin-1-yl)-2-methyl-1-(((S)-tetrahydrofuran-2-yl)methyl)-1H-[1,2,4]triazolo[3,4-b]purine], the IC50 at DGKα and on DGKζ was at most 20 nM in each case.
In the case of `COc1ccc([C@@H](C(C)C)N2C[C@H](C)N(c3nc4nncn4c4c3nc(C)n4C[C@@H]3CCCO3)C[C@H]2C)cc1` [Example 78, 4-((2S,5R)-4-((R)-1-(4-methoxyphenyl)-2-methylpropyl)-2,5-dimethylpiperazin-1-yl)-2-methyl-1-(((S)-tetrahydrofuran-2-yl)methyl)-1H-[1,2,4]triazolo[3,4-b]purine], the IC50 at DGKα and at DGKζ was at most 20 nM throughout.
For `Cc1nc2c(N3C[C@@H](C)N([C@H](c4ccc(OC(F)F)cc4)C(C)C)C[C@@H]3C)nc3nncn3c2n1C[C@@H]1CCCO1` [Example 79, 4-((2S,5R)-4-((S)-1-(4-(Difluoromethoxy)phenyl)-2-methylpropyl)-2,5-dimethylpiperazin-1-yl)-2-methyl-1-(((S)-tetrahydrofuran-2-yl)methyl)-1H-[1,2,4]triazolo[3,4-b]purine], the IC50 on DGKα and at DGKζ was at most 20 nM in each case.
On to `Cc1nc2c(N3C[C@@H](C)N([C@@H](c4ccc(OC(F)F)cc4)C(C)C)C[C@@H]3C)nc3nncn3c2n1C[C@@H]1CCCO1` [Example 80, 4-((2S,5R)-4-((R)-1-(4-(difluoromethoxy)phenyl)-2-methylpropyl)-2,5-dimethylpiperazin-1-yl)-2-methyl-1-(((S)-tetrahydrofuran-2-yl)methyl)-1H-[1,2,4]triazolo[3,4-b]purine], for which the IC50 was at most 20 nM at DGKα and 20 to 200 nM at DGKζ.
The matching figures for `Cc1nc2c(N3C[C@@H](C)N(C(c4ccc(F)c(C(F)F)c4)C(C)C)C[C@@H]3C)nc3nncn3c2n1C[C@@H]1CCCO1` (stereo partly drawn) [Example 82, 4-((2S,5R)-4-(1-(3-(Difluoromethyl)-4-fluorophenyl)-2-methylpropyl)-2,5-dimethylpiperazin-1-yl)-2-methyl-1-(((S)-tetrahydrofuran-2-yl)methyl)-1H-[1,2,4]triazolo[3,4-b]purine]: at most 20 nM and at most 20 nM.
The matching figures for `Cc1nc2c(N3C[C@@H](C)N(C(c4ccc(C(F)(F)F)c(F)c4)C(C)C)C[C@@H]3C)nc3nncn3c2n1C[C@@H]1CCCO1` (stereo partly drawn) [Example 83, 4-((2S,5R)-4-(1-(3-Fluoro-4-(trifluoromethyl)phenyl)-2-methylpropyl)-2,5-dimethylpiperazin-1-yl)-2-methyl-1-(((S)-tetrahydrofuran-2-yl)methyl)-1H-[1,2,4]triazolo[3,4-b]purine]: at most 20 nM and at most 20 nM.
The matching figures for `Cc1nc2c(N3C[C@@H](C)N(C(c4ccc(F)c(C(F)(F)F)c4)C(C)C)C[C@@H]3C)nc3nncn3c2n1C[C@@H]1CCCO1` (stereo partly drawn) [Example 84, 4-((2S,5R)-4-(1-(4-Fluoro-3-(trifluoromethyl)phenyl)-2-methylpropyl)-2,5-dimethylpiperazin-1-yl)-2-methyl-1-(((S)-tetrahydrofuran-2-yl)methyl)-1H-[1,2,4]triazolo[3,4-b]purine]: at most 20 nM and at most 20 nM.
With `Cc1nc2c(N3C[C@@H](C)N(C(c4ccc(C(F)(F)F)c(Cl)c4)C(C)C)C[C@@H]3C)nc3nncn3c2n1C[C@@H]1CCCO1` (stereo partly drawn) [Example 85, 4-((2S,5R)-4-(1-(3-Chloro-4-(trifluoromethyl)phenyl)-2-methylpropyl)-2,5-dimethylpiperazin-1-yl)-2-methyl-1-(((S)-tetrahydrofuran-2-yl)methyl)-1H-[1,2,4]triazolo[3,4-b]purine], the IC50 at DGKα and at DGKζ was at most 20 nM in each case.
On to `Cc1nc2c(N3C[C@@H](C)N([C@H](c4ccc(F)c(Cl)c4)C(C)C)C[C@@H]3C)nc3nncn3c2n1C[C@@H]1CCCO1` [Example 86, 4-((2S,5R)-4-((S)-1-(3-Chloro-4-fluorophenyl)-2-methylpropyl)-2,5-dimethylpiperazin-1-yl)-2-methyl-1-(((S)-tetrahydrofuran-2-yl)methyl)-1H-[1,2,4]triazolo[3,4-b]purine], for which the IC50 on DGKα and at DGKζ was at most 20 nM each time.
With `Cc1nc2c(N3C[C@@H](C)N([C@H](c4ccc(Cl)cc4)C(C)C)C[C@@H]3C)nc3nncn3c2n1C[C@@H]1CCCO1` [Example 88, 4-((2S,5R)-4-((S)-1-(4-Chlorophenyl)-2-methylpropyl)-2,5-dimethylpiperazin-1-yl)-2-methyl-1-(((S)-tetrahydrofuran-2-yl)methyl)-1H-[1,2,4]triazolo[3,4-b]purine], the IC50 at DGKα and at DGKζ was at most 20 nM throughout.
With `Cc1nc2c(N3C[C@@H](C)N([C@@H](c4ccc(Cl)cc4)C(C)C)C[C@@H]3C)nc3nncn3c2n1C[C@@H]1CCCO1` [Example 89, 4-((2S,5R)-4-((R)-1-(4-chlorophenyl)-2-methylpropyl)-2,5-dimethylpiperazin-1-yl)-2-methyl-1-(((S)-tetrahydrofuran-2-yl)methyl)-1H-[1,2,4]triazolo[3,4-b]purine], the IC50 on DGKα and at DGKζ was at most 20 nM in each case.
On to `CC(C)[C@@H](c1ccc(Cl)cc1)N1C[C@H](C)N(c2nc3nncn3c3c2ncn3CCN(C)C)C[C@H]1C` [Example 90, 2-(4-((2S,5R)-4-((S)-1-(4-Chlorophenyl)-2-methylpropyl)-2,5-dimethylpiperazin-1-yl)-1H-[1,2,4]triazolo[3,4-b]purin-1-yl)-N,N-dimethylethan-1-amine], for which the concentration for half-maximal inhibition (IC50) at DGKα and at DGKζ was at most 20 nM each time.
